Columns and labels:
fetal rat bones = test: 45-Ca++ release (bone resorption) from explants of fetal rat bones stimulated by PTH or lymphokine (OAF); type: cell-based; conditions: for 45-Ca++ release after stimulation by PTH or lymphokine (dose dependence): 48 hrs preincubation; for 45-Ca++ release expt'l / 45-Ca++ release control (E/C): control 1.00 ± .06; for 45-Ca++ release, gallium alone: without added PTH or lymphokine, vs control bones
Protocol: The effects of gallium nitrate on bone resorption in vitro were studied using explants of fetal rat bones (Bockman, R. S. and Repo, M. A., J Exp Med 154:529, 1981). Pregnant rats were injected with 0.2-0.4 mCi of 45-CaC12 on the 18th day of gestation. After 2 days of bone mineralization in utero, the radii and ulnae of fetal rats were explanted and placed on stainless steel rafts in BGJ media. Calcium releases from bone was stimulated by the addition of bovine PTH (2.0 microM, final concentration)or a lymphokine (OAF) preparation (10% of final volume). Gallium nitrate was added to the culture media at final concentration of 1, 5 and 10 mcg/ml simultaneously with--and 18 or 48 hours prior to--the addition of the bone-resorbing factors. After 48 hours of exposure to lymphokine or PTH, calcium release was determined by counting the supernatant media in a liquid scintillation counter. Data were expressed as the ratio of calcium release in counts per minute (cpm) of the experimental bone (treated or untreated with gallium nitrate and a resorbing factor) to cpm release by a paired control bone (treated or untreated with gallium nitrate) [cpm experimental/cpm control=E/C] Forty-nine bones were used to establish control values; 4-22 bones were used to obtain each of the experimental points. […]

explanted bones = test: PGE2 release from explanted fetal rat bones; type: cell-based
[1] = 48 h preincubation, 1, 5 and 10 mcg/ml

Structure (SMILES): O=[N+]([O-])[O-].O=[N+]([O-])[O-].O=[N+]([O-])[O-].[Ga+3] [gallium nitrate]
- 45-Ca++ release after stimulation by PTH or lymphokine (dose dependence) (fetal rat bones; 1 mcg/ml): no significant change
- 45-Ca++ release after stimulation by PTH or lymphokine (dose dependence) (fetal rat bones; 5 and 10 mcg/ml, P less than 0.025): significant and dose-related reductions
- 45-Ca++ release (time dependence) (fetal rat bones; 10 mcg/ml simultaneously with (time 0) or 18 hrs preceding PTH or lymphokine): the reduction was not statistically significant
- 45-Ca++ release (fetal rat bones; [1]): dose dependent decrease
- 45-Ca++ release expt'l / 45-Ca++ release control (E/C) (fetal rat bones; PTH-stimulated, gallium 1 mcg/ml, 48 h preincubation, 0 gallium: 1.21 ± 0.15): 1.24
- 45-Ca++ release expt'l / 45-Ca++ release control (E/C) (fetal rat bones; PTH-stimulated, gallium 5 mcg/ml, 48 h preincubation, 0 gallium: 1.21 ± 0.15): 1.08
- 45-Ca++ release expt'l / 45-Ca++ release control (E/C) (fetal rat bones; PTH-stimulated, gallium 10 mcg/ml, 48 h preincubation, 0 gallium: 1.21 ± 0.15): 0.99
- 45-Ca++ release expt'l / 45-Ca++ release control (E/C) (fetal rat bones; lymphokine-stimulated, gallium 1 mcg/ml, 48 h preincubation, 0 gallium: 1.59 ± .1): 1.54 ± .16
- 45-Ca++ release expt'l / 45-Ca++ release control (E/C) (fetal rat bones; lymphokine-stimulated, gallium 5 mcg/ml, 48 h preincubation, 0 gallium: 1.59 ± .1): 1.21 ± .04
- 45-Ca++ release expt'l / 45-Ca++ release control (E/C) (fetal rat bones; lymphokine-stimulated, gallium 10 mcg/ml, 48 h preincubation, 0 gallium: 1.59 ± .1): 1.23 ± .04
- lymphokine-induced 45-Ca++ release (time dependence) (fetal rat bones; pre-incubation 48 hours preceding lymphokine, 10 mcg/ml): highly significant reduction
- calcium release induced by PTH and by factor similar to OAF (fetal rat bones; summary, inhibition time- and dose-dependent): inhibits calcium release induced by both of these substances
- 45-Ca++ release, gallium alone (fetal rat bones): No increase in bone calcium release
- 45-Ca++ release, gallium alone (fetal rat bones; listed as gallium): did not have any effect on 45-Ca++ release
- PGE2 release from explanted bones (explanted bones; 10 mcg/ml, 24-48 h, vs non-treated bones): no change in PGE2 over control
- PGE2 release (explanted bones; [1]): no significant change in PGE2 release
- PGE2 (explanted bones; PTH, gallium 1 mcg/ml, 48 h preincubation, 0 gallium: 1.4, control 1.2): 2.2 ng/bone
- PGE2 (explanted bones; PTH, gallium 5 mcg/ml, 48 h preincubation, 0 gallium: 1.4, control 1.2): 1.3 ng/bone
- PGE2 (explanted bones; PTH, gallium 10 mcg/ml, 48 h preincubation, 0 gallium: 1.4, control 1.2): 3.9 ng/bone
- PGE2 release of gallium treated bones on exposure to lymphokine, but not PTH (explanted bones; gallium treated bones exposed to lymphokine): significant increase in PGE2 release
- PGE2 (explanted bones; lymphokine, gallium 1 mcg/ml, 48 h preincubation, 0 gallium: 17.1, control 2.0): 17.4 ng/bone
- PGE2 (explanted bones; lymphokine, gallium 5 mcg/ml, 48 h preincubation, 0 gallium: 17.1, control 2.0): 16.7 ng/bone
- PGE2 (explanted bones; lymphokine, gallium 10 mcg/ml, 48 h preincubation, 0 gallium: 17.1, control 2.0): 15.1 ng/bone
